Measured values published in patent US4743677A, “Calcitonin gene related peptide derivatives” (Toyo Jozo Co., Ltd., priority 1985, dated 1988).

Experiments:
[1] = Serum calcium level lowering effect in rats (atomic absorption spectrophotometry); assay type: in vivo; settings: 80 μg/kg through tail vein, Wistar rats; for drop of serum calcium concentration compared with control group: blood at 30 and 60 minutes, control = dissolving solution only; for serum calcium concentration compared with h-CGRP administered group: versus h-CGRP 80 μg/kg
Experimental: (§1) h-CGRP, desalanyl-deamino-h-CGRP and desalanyl-[Asu^2,7 ] -h-CGRP, each 80 μg, were dissolved in 1 ml of a citrate buffer (pH 6.5) containing 0.1% of bovine serum albumin (hereinafter called "dissolving solution") and then administered to a group of 5-6 Wistar rats (80-90 g) at 80 μg/kg through their tail veins. Upon elapsed time of 30 minutes and 60 minutes, blood samples were collected from their abdominal descending aortas. The serum calcium concentrations were measured by atomic absorption spectrophotometry while the serum phosphorus concentrations were determined the method proposed by Goldenberg et al. [Clin Chem., 12, 871-882 (1966)] .

[2] = Serum phosphorus level lowering effect in rats (method of Goldenberg et al.); assay type: in vivo; settings: 80 μg/kg through tail vein, Wistar rats; for drop of serum phosphorus concentration compared with control group: blood at 30 and 60 minutes, control = dissolving solution only; for serum phosphorus concentration compared with h-CGRP administered group: versus h-CGRP 80 μg/kg
Experimental: as §1

[3] = Stability in an aqueous solution; assay type: physicochemical
[4] = Isoelectric point (pI) of the purified peptide; assay type: physicochemical; settings: purified product

Structure (SMILES)	drop of serum calcium concentration compared with control group [1]	serum calcium concentration compared with h-CGRP administered group [1]	drop of serum phosphorus concentration compared with control group [2]	serum phosphorus concentration compared with h-CGRP administered group [2]	stability in an aqueous solution [3]	pI [4]	activity exhibiting time (serum calcium lowering) compared with h-CGRP ([1]; 30 and 60 minutes)	activity exhibiting time (serum phosphorus lowering) compared with h-CGRP ([2]; 30 and 60 minutes)
CC(C)C[C@H](NC(=O)CNC(=O)[C@H](C)NC(=O)[C@H](CC(C)C)NC(=O)[C@H](CCCNC(=N)N)NC(=O)[C@H](Cc1c[nH]cn1)NC(=O)[C@@H](NC(=O)[C@@H](NC(=O)[C@@H]1CCCCCC(=O)N[C@@H](CC(=O)O)C(=O)N[C@@H]([C@@H](C)O)C(=O)N[C@@H](C)C(=O)N[C@@H]([C@@H](C)O)C(=O)N1)C(C)C)[C@@H](C)O)C(=O)N[C@@H](CC(C)C)C(=O)N[C@@H](CO)C(=O)N[C@@H](CCCNC(=N)N)C(=O)N[C@@H](CO)C(=O)NCC(=O)NCC(=O)N[C@H](C(=O)N[C@H](C(=O)N[C@@H](CCCCN)C(=O)N[C@@H](CC(N)=O)C(=O)N[C@@H](CC(N)=O)C(=O)N[C@@H](Cc1ccccc1)C(=O)N[C@H](C(=O)N1CCC[C@H]1C(=O)N[C@H](C(=O)N[C@@H](CC(N)=O)C(=O)N[C@H](C(=O)NCC(=O)N[C@@H](CO)C(=O)N[C@@H](CCCCN)C(=O)N[C@@H](C)C(=O)N[C@@H](Cc1ccccc1)C(N)=O)C(C)C)[C@@H](C)O)C(C)C)C(C)C)C(C)C [desalanyl-[Asu^2,7]-h-CGRP]	about 20%	dropped with significance	about 20%	dropped with significance	extremely good stability	≥ 10.25	–	–
CC(C)C[C@H](NC(=O)CNC(=O)[C@H](C)NC(=O)[C@H](CC(C)C)NC(=O)[C@H](CCCNC(=N)N)NC(=O)[C@H](Cc1c[nH]cn1)NC(=O)[C@@H](NC(=O)[C@@H](NC(=O)[C@@H]1CSSCCC(=O)N[C@@H](CC(=O)O)C(=O)N[C@@H]([C@@H](C)O)C(=O)N[C@@H](C)C(=O)N[C@@H]([C@@H](C)O)C(=O)N1)C(C)C)[C@@H](C)O)C(=O)N[C@@H](CC(C)C)C(=O)N[C@@H](CO)C(=O)N[C@@H](CCCNC(=N)N)C(=O)N[C@@H](CO)C(=O)NCC(=O)NCC(=O)N[C@H](C(=O)N[C@H](C(=O)N[C@@H](CCCCN)C(=O)N[C@@H](CC(N)=O)C(=O)N[C@@H](CC(N)=O)C(=O)N[C@@H](Cc1ccccc1)C(=O)N[C@H](C(=O)N1CCC[C@H]1C(=O)N[C@H](C(=O)N[C@@H](CC(N)=O)C(=O)N[C@H](C(=O)NCC(=O)N[C@@H](CO)C(=O)N[C@@H](CCCCN)C(=O)N[C@@H](C)C(=O)N[C@@H](Cc1ccccc1)C(N)=O)C(C)C)[C@@H](C)O)C(C)C)C(C)C)C(C)C [desalanyl-deamino-h-CGRP]	about 20%	dropped with significance	about 20%	dropped with significance	–	≥ 10.25	prolonged	prolonged
